In patent publication US8461305B2, “L-fucose α1→6 specific lectin” (J-Oil Mills, Inc., priority 2008, dated 2013):

Legend:
[1] = frontal affinity chromatography (FAC), association constant to PA sugar chains having other L-fucose; type: binding; conditions: 25 degrees C.
Protocol: (§1) The following section will describe a method of calculating an association constant by frontal affinity chromatography (FAC). This method is based on the following principle. […] Then, the elution front end (front) is observed immediately. When there is an affinity with lectin, the elution of the sugar chain is delayed.
(§2) The preparation of a lectin column used in the apparatus is performed in the method as described below. 1. Purified lectin is dissolved in 0.1 to 0.2M of NaHCO3 buffer solution (pH 8.3 to 8.5). 2. The lectin is immobilized, via a lectin primary amino group, a carrier such as NHS activated sepharose. 3. Then, the lectin is blocked by Tris buffer solution including primary amine or ethanolamine for example. 4. Lectin-sepharose is suspended in 10 mM Tris buffer, including 0.8% of NaCl (pH 7.4, TBS). Then, lectin immobilized resin is filled in a miniature column (φ2 mm×10 mm, 31.4 μl). 5. The miniature column in which the lectin immobilized resin is filled is protected by a holder and the lectin column is connected to an FAC automatic analysis apparatus (FAC-1, SHIMADZU CORPORATION).
(§3) Then, the elution of the PA sugar chain from the column is detected by a fluorescence detector (excitation wavelength/fluorescence wavelength: 310 nm/380 nm).
(§4) Based on the detection data, by using the elution front end (Vo) of the sugar chain (PA rhamnose) not interacting with lectin as a reference, the delay (V−Vo) of the elution front end (V) of a sugar chain interacting with lectin is calculated as an interaction strength. Then, based on the following FAC criteria expressions, the association constant (Ka) between the sugar chain and lectin is calculated based on V−Vo and Bt. If the interaction strength (V−Vo value) and the association constant are higher, a higher affinity is caused between lectin and an L-fucose α1→6 sugar chain.
(§5) [In the formula, A means substance used for the elution, Ao means the initial concentration of the substance A, B means a immobilized ligand, V means the elution volume, Vo means the elution front end volume of the substance not interacting with the immobilized ligand B at all, Bt means an effective ligand amount, Kd means a dissociation constant (an inverse of the association constant)].
(§6) Pyridylaminated (PA) sugar chains shown in FIG. 1 and FIG. 2 were used to frontal affinity chromatography (FAC) analysis. PA sugars were purchased from TAKARA BIO INC., SEIKAGAKU BIOBUSINESS CORPORATION, and Masuda Chemical Industries co., LTD. PA sugar were also obtained by pyridylaminating, by GlycoTAG®(TAKARA BIO INC.), an unlabeled sugar chain or a sugar chain obtained by subjecting a sugar chain to enzyme digestion for example.
(§7) Lectin was dissolved in 0.2 M NaHCO3 buffer solution (pH 8.3) including 0.5 M NaCl and coupled to the NHS-activated sepharose (GE Healthcare Bioscience) by following the manufacturer's instructions. Then, lectin immobilized sepharose was suspended in 10 mM Tris buffer (pH 7.4, TBS) including […] and the resultant matter was filled in a miniature column (φ2 mm×10 mm, 31.4 μl).
(§8) Frontal affinity chromatography was performed using FAC automatic analysis apparatus (FAC-1, SHIMADZU CORPORATION). In particular, the above-prepared lectin column was inserted to a stainless steel holder and the holder was connected to FAC-1 apparatus. The flow rate and the column temperature were maintained at 0.125 ml/min and 25 degrees C., respectively. After the miniature column was equilibrated by the TBS, an excessive volume (0.5 ml to 4 ml) of a PA sugar chain (3.75 nM or 7.5 nM) was continuously inputted to the column using an automatic sampling apparatus.
(§9) The fluorescent strength of the eluate of the PA sugar (excitation wavelength of 310 nm and fluorescence wavelength of 380 nm) was monitored to measure the interaction strength [a difference of the front end eluate to the standard oligosaccharide (PA rhamnose): V−V0]. […]

[2] = frontal affinity chromatography (FAC), association constant to PA sugar chains without L-fucose; type: binding; conditions: 25 degrees C.
Protocol: as §1, §2, §3, §4, §5, §6, §7, §8, §9

Aspergillus oryzae lectin [AOL, reference compound]
association constant Ka ([1]; Sugar chain No. 419): <1000 M⁻¹
association constant Ka ([1]; Sugar chain No. 420): <1000 M⁻¹
association constant Ka ([1]; Sugar chain No. 718): 170000 M⁻¹
association constant Ka ([1]; Sugar chain No. 719): <1000 M⁻¹
association constant Ka ([1]; Sugar chain No. 720): <1000 M⁻¹
association constant Ka ([1]; Sugar chain No. 721): <1000 M⁻¹
association constant Ka ([1]; Sugar chain No. 722): 56000 M⁻¹
association constant Ka ([1]; Sugar chain No. 723): <1000 M⁻¹
association constant Ka ([1]; Sugar chain No. 726): <1000 M⁻¹
association constant Ka ([1]; Sugar chain No. 727): 76000 M⁻¹
association constant Ka ([1]; Sugar chain No. 728 (as listed in Table 5/12)): 12000 M⁻¹
association constant Ka ([1]; Sugar chain No. 729): <1000 M⁻¹
association constant Ka ([1]; Sugar chain No. 730): <1000 M⁻¹
association constant Ka ([1]; Sugar chain No. 731): <1000 M⁻¹
association constant Ka ([1]; Sugar chain No. 739): <1000 M⁻¹
association constant Ka ([1]; Sugar chain No. 909): 44000 M⁻¹
association constant Ka ([1]; Sugar chain No. 910): 56000 M⁻¹
association constant Ka ([1]; Sugar chain No. 931): 99000 M⁻¹
association constant Ka ([1]; Sugar chain No. 932): <1000 M⁻¹
association constant Ka ([1]; Sugar chain No. 933): 31000 M⁻¹
association constant Ka ([2]; Sugar chain No. 001): <1000 M⁻¹
association constant Ka ([2]; Sugar chain No. 002): <1000 M⁻¹
association constant Ka ([2]; Sugar chain No. 003): <1000 M⁻¹
association constant Ka ([2]; Sugar chain No. 004): <1000 M⁻¹
association constant Ka ([2]; Sugar chain No. 005): 7300 M⁻¹
association constant Ka ([2]; Sugar chain No. 006): <1000 M⁻¹
association constant Ka ([2]; Sugar chain No. 007): <1000 M⁻¹
association constant Ka ([2]; Sugar chain No. 008): 69000 M⁻¹
association constant Ka ([2]; Sugar chain No. 009): <1000 M⁻¹
association constant Ka ([2]; Sugar chain No. 010): <1000 M⁻¹
association constant Ka ([2]; Sugar chain No. 011): <1000 M⁻¹
association constant Ka ([2]; Sugar chain No. 012): <1000 M⁻¹
association constant Ka ([2]; Sugar chain No. 013): <1000 M⁻¹
association constant Ka ([2]; Sugar chain No. 014): <1000 M⁻¹
association constant Ka ([2]; Sugar chain No. 101): <1000 M⁻¹
association constant Ka ([2]; Sugar chain No. 103): <1000 M⁻¹
association constant Ka ([2]; Sugar chain No. 104): <1000 M⁻¹
association constant Ka ([2]; Sugar chain No. 105): <1000 M⁻¹
association constant Ka ([2]; Sugar chain No. 107): <1000 M⁻¹
association constant Ka ([2]; Sugar chain No. 108): <1000 M⁻¹
association constant Ka ([2]; Sugar chain No. 301): 18000 M⁻¹
association constant Ka ([2]; Sugar chain No. 304): 20000 M⁻¹
association constant Ka ([2]; Sugar chain No. 305): <1000 M⁻¹
association constant Ka ([2]; Sugar chain No. 307): <1000 M⁻¹
association constant Ka ([2]; Sugar chain No. 308): 20000 M⁻¹
association constant Ka ([2]; Sugar chain No. 313): <1000 M⁻¹
association constant Ka ([2]; Sugar chain No. 314): <1000 M⁻¹
association constant Ka ([2]; Sugar chain No. 323): <1000 M⁻¹
association constant Ka ([2]; Sugar chain No. 501): <1000 M⁻¹
association constant Ka ([2]; Sugar chain No. 502): <1000 M⁻¹
association constant Ka ([2]; Sugar chain No. 503): <1000 M⁻¹
association constant Ka ([2]; Sugar chain No. 504): <1000 M⁻¹
association constant Ka ([2]; Sugar chain No. 701): <1000 M⁻¹
association constant Ka ([2]; Sugar chain No. 702): <1000 M⁻¹
association constant Ka ([2]; Sugar chain No. 703): <1000 M⁻¹
association constant Ka ([2]; Sugar chain No. 704): <1000 M⁻¹
association constant Ka ([2]; Sugar chain No. 705): <1000 M⁻¹
association constant Ka ([2]; Sugar chain No. 706): <1000 M⁻¹
association constant Ka ([2]; Sugar chain No. 707): <1000 M⁻¹
association constant Ka ([2]; Sugar chain No. 708): <1000 M⁻¹
association constant Ka ([2]; Sugar chain No. 709): <1000 M⁻¹
association constant Ka ([2]; Sugar chain No. 710): <1000 M⁻¹
association constant Ka ([2]; Sugar chain No. 711): <1000 M⁻¹
association constant Ka ([2]; Sugar chain No. 712): <1000 M⁻¹
association constant Ka ([2]; Sugar chain No. 713): <1000 M⁻¹
association constant Ka ([2]; Sugar chain No. 715): <1000 M⁻¹
association constant Ka ([2]; Sugar chain No. 716): <1000 M⁻¹
association constant Ka ([2]; Sugar chain No. 717): <1000 M⁻¹
association constant Ka ([2]; Sugar chain No. 724): <1000 M⁻¹
association constant Ka ([2]; Sugar chain No. 725): <1000 M⁻¹
association constant Ka ([2]; Sugar chain No. 728 (as listed in Table 7)): <1000 M⁻¹
association constant Ka ([2]; Sugar chain No. 732): <1000 M⁻¹
association constant Ka ([2]; Sugar chain No. 733): <1000 M⁻¹
association constant Ka ([2]; Sugar chain No. 734): <1000 M⁻¹
association constant Ka ([2]; Sugar chain No. 735): <1000 M⁻¹
association constant Ka ([2]; Sugar chain No. 736): <1000 M⁻¹
association constant Ka ([2]; Sugar chain No. 737): <1000 M⁻¹
association constant Ka ([2]; Sugar chain No. 738): <1000 M⁻¹
association constant Ka ([2]; Sugar chain No. 901): <1000 M⁻¹
association constant Ka ([2]; Sugar chain No. 902): <1000 M⁻¹
association constant Ka ([2]; Sugar chain No. 903): <1000 M⁻¹
association constant Ka ([2]; Sugar chain No. 905): <1000 M⁻¹
association constant Ka ([2]; Sugar chain No. 906): <1000 M⁻¹
association constant Ka ([2]; Sugar chain No. 907): <1000 M⁻¹
